From patent US7439223B2, “Nucleophosmin/B23-binding peptide to inhibit tumor growth and regulate transcriptional activity of p53” (Chang Gung University, priority 2005, dated 2008)
Converted amounts (≈) assume the structure as drawn. Ends that are not written are not given here.

Experiments:
Ras-3T3 cells [1] = assay: cytotoxic effect of peptides on Ras-3T3 cell viability; format: cell-based; conditions: for effect on cellular viability: 25 to 400 μM
Description: (§1) Regarding the cells and antibodies, MGH-U1 was established from a Grade III bladder transitional cell carcinoma. U1 and Ras-3T3 cells were grown in RPMI 1640 medium supplemented with 10% fetal bovine serum and 1% antibiotics in 5% CO2 humidified incubator at 37° C. The number of viable cells was determined by trypan blue exclusion and counted with a hemocytometer. Antinucleophosmin/B23 mAb, Anti-p53 polyclonal antibody (pAb) and anti-GAPDH were provided.
Rev-NLS (Rev), T-NLS and np-NLS peptides were synthesized. The primary sequences of the peptides and the dissociation constants of their interactions with nucleophosmin/B23 are shown in FIG. 4. Rev, T-NLS, and np-NLS peptides were applied to Ras-3T3 cells in parallel experiments at concentrations ranging from 25 to 400 μM.
In summary a review of the Figures is given. FIGS. 1A-1D, illustrate Nucleophosmin/B23-binding peptide inhibits tumor growth of Ras-3T3 cells and tumors in nude mice. […] After 24 hours of exposure, cells were counted and survival was expressed as the percentage of surviving cells relative to the untreated cells. Data represent means ±standard deviations; n=3. […] The colonies were stained and scored 12 days after seeding and the efficiencies were calculated as the percentage relative to the untreated cells. Values were expressed as the means ± standard deviations for three determinations. […] Mean tumor volume ±standard deviation for each treatment group was plotted (n=5). Statistical differences in tumor volumes were determined by Student's t-test. […] Tumor volumes of Rev- and PBS-treated (control) mice were plotted (n=5). A Student's t-test was used for statistical analysis. Results shown are representative of three independent experiments.

[2] = test system: tumors induced by Ras-3T3 cells; assay: nude mouse xenograft assay, intraperitoneal treatment; format: in vivo, nude mice; conditions: 10 mg/20 g body weight intraperitoneally once daily for 14 days, vs PBS
Description: Exponentially growing Ras-3T3 cells were harvested, washed and resuspended in PBS at 3×10^6 cells/ml. Tumor xenografts were established by inoculating one hundred microliters (100 μl) of the cell suspension subcutaneously into the right flanks of the nude mice. To assay the antitumor activity of Rev, T-NLS, and np-NLS peptides, they were administered to tumors as a systemic intraperitoneal or as a local subcutaneous treatment. For intraperitoneal treatment, mice were randomized into 4 groups of 5 animals after grafting.
Animals were treated once daily for 14 days beginning 48 hr after the inoculation of Ras-3T3 cells. […] Three-dimensional measurements were taken with electric caliper and the tumor volumes were calculated using the formula, V=4πxyz/3, where 2x, 2y and 2z were the three perpendicular diameters of the tumor. […] Statistical differences in the tumor volumes were analyzed by the student's t-test. […]
Next, a nude mouse xenograft assay was used to evaluate the antitumor effect of peptides on the growth of tumors induced by Ras-3T3 cells. […] During the course of treatment, tumor growth was monitored daily by caliper measurement.
In summary a review of the Figures is given. […] After 24 hours of exposure, cells were counted and survival was expressed as the percentage of surviving cells relative to the untreated cells. […]

p53 [3] = assay: p53 expression level by western blotting in U1 cells; format: cell-based; conditions: 25-150 μM for 3 hours or 50 μM for 0.2-7 hours
Description: p53 protein is known to suppress tumor formation in vivo at least in part through its ability to induce cell death. The susceptibility of tumor cells to induction of cell death by cytotoxic drugs is modulated by p53 in many cases. It is then important for us to test whether the anti-tumor activity of nucleophosmin/B23-binding peptide is mediated through a p53 dependent regulation. […] The expression levels of p53 were measured by western blotting. […] In parallel, we transfected cells with a plasmid containing the luciferase reporter gene under the control of an artificial p53 target promoter (pGL13). […] Moreover, we analyzed whether the level of p53 changes upon siRNA mediated reduction of the intracellular amount of nucleophosmin/B23. […]
(§2) FIGS. 3A-3F illustrate Nucleophosmin/B23 regulates the increase in protein expression of p53. […] Total cell lysates were analyzed by western immunoblotting using antibodies specific for p53 and GAPDH. […] Total cell lysates were analyzed by Western immunoblotting using antibodies specific for nucleophosmin/B23, p53 and GAPDH. […] After 3 hours, cells were harvested and were analyzed by Western immunoblotting using antibodies specific for p53 and GAPDH. […] The cell extracts containing equal amounts of proteins were analyzed for CAT activity and luciferase activities. […]

p53 [4] = assay: p53-dependent luciferase reporter (pGL13) in U1 cells; format: cell-based; conditions: 50-150 μM for 3 hours
Text: pp53-TA-Luc contains a p53 response element, located upstream of the minimal TA promoter, the TATA box from the herpes simplex virus thymidine kinase promoter (PTA). Located downstream of PTA is the firefly luciferase reporter gene. Double stranded siRNA oligonucleotides against B23, siB23-297 (sense: 5′-[…]; and antisense: […]), and siB23-191 (sense 5′-[…] and antisense: […]) were synthesized. Two oligonucleotides were annealed and cloned into pSilencer™ siRNA expression vector by EcoR1 and Apa1.
Transfections were performed using Lipofectamine™ Reagent method. Before transfection, cells (2×10^5 per well) were seeded in 6-well plates overnight. […]
p53 protein is known to suppress tumor formation in vivo at least in part through its ability to induce cell death. […] The expression levels of p53 were measured by western blotting. […] Moreover, we analyzed whether the level of p53 changes upon siRNA mediated reduction of the intracellular amount of nucleophosmin/B23. […]
FIGS. 3A-3F illustrate Nucleophosmin/B23 regulates the increase in protein expression of p53. […] Total cell lysates were analyzed by western immunoblotting using antibodies specific for p53 and GAPDH. […] Total cell lysates were analyzed by Western immunoblotting using antibodies specific for nucleophosmin/B23, p53 and GAPDH. […] The cell extracts containing equal amounts of proteins were analyzed for CAT activity and luciferase activities. […]

nucleophosmin/B23 = conditions: cited from earlier work
[5] = test system: nucleophosmin/B23 over-expressed cells; assay: cytotoxic effect on nucleophosmin/B23 over-expressed cells
U1 bladder cancer cells = assay: U1 bladder cancer cell viability; format: cell-based; conditions: 24 hr, alone, read-out: concentration required to produce a 50% decrease in cell viability
Description: as §1
U1 (3×10^5) cells were treated with doxorubicin (DOX, 0.032-1.0 μg/ml). […] After 24 hr of exposure, cells were counted and survival was expressed as the percentage of surviving cells relative to the untreated cells. […] The relative tumor volumes were expressed as percentages of the initial volumes at first day of treatments. *p<0.05, as compared with control mice. […]
as §2

Ras-3T3 cells [6] = assay: tumor growth in nude mice, DOX, Rev or DOX+Rev subcutaneously adjacent to the tumors; format: in vivo; conditions: 20 μg/20 g body weight subcutaneously adjacent to the tumors daily for 5 days
Description: Doxorubicin (DOX), an anthracycline anti-tumor antibiotic, is active against a number of human cancers.
U1 (3×10^5) cells were treated with doxorubicin (DOX, 0.032-1.0 μg/ml). […] After 24 hr of exposure, cells were counted and survival was expressed as the percentage of surviving cells relative to the untreated cells. Data represent means ±standard deviations; n=3. In FIG. 2D, each mouse was inoculated with 3×10^5 Ras-3T3 cells (one site/mouse). […] Tumor volumes of DOX (20 μg/20 g body weight), Rev (1 mg/20 g body weight), DOX (10 μg/20 g body weight)+Rev (0.5 mg/20 g body weight) and PBS-treated (control) mice were plotted (n=5). The relative tumor volumes were expressed as percentages of the initial volumes at first day of treatments. *p<0.05, as compared with control mice. A Student's t-test was used for statistical analysis. Results shown are representative of three independent experiments.

KRPAATKKAGQAKKKKYC (listed as Homo sapiens) [np-NLS]
effect on cellular viability (Ras-3T3 cells [1]): little or virtually no effect
activity against cells (Ras-3T3 cells [1]; at 1 mM (data not shown)): no activity
inhibition of tumor growth [2]: No inhibition of tumor growth
intracellular amount of p53 (protein expression) (p53 [3]): No such increases
increase in p53-dependent transcription from the pGL13 promoter (p53 [4]): No such increases
binding affinity toward nucleophosmin/B23 (nucleophosmin/B23; in words): no binding affinity

PKKKRKVEDPYC [T-NLS, PKKKRKVE DPYC]
effect on cellular viability (Ras-3T3 cells [1]): little or virtually no effect
IC50 (Ras-3T3 cells [1]; read-out: concentration at which there was a 50% decrease in cell viability): ~1000 µM
inhibition of tumor growth [2]: 63.6%
Kd (nucleophosmin/B23; read-out: kd of interaction with nucleophosmin/B23): 0.824 µM

ARRNRRRRWREYC-NH2 [Rev peptide]
dose needed to exert similar cytotoxic effect [5]: higher doses

COc1cccc2c1C(=O)c1c(O)c3c(c(O)c1C2=O)C[C@@](O)(C(=O)CO)C[C@@H]3O[C@H]1C[C@H](N)[C@H](O)[C@H](C)O1 [DOX, Doxorubicin]
IC50 (U1 bladder cancer cells): 0.08 µg/mL (≈ 0.147 µM)
tumor growth versus PBS control (Ras-3T3 cells [6]): grew more slowly
